Test [1] has as its target T1, HGFA (Homo sapiens, UniProt Q04756).
T1 construct: His6 tag (N); seven amino acid spacer and seven amino acid TEV cleavage site (N); Honey Bee melittin signal peptide (N); made in house; host or cells: High 5 insect cells (baculovirus; virus raised in Sf9)
T1 sequence (Q04756 373-655): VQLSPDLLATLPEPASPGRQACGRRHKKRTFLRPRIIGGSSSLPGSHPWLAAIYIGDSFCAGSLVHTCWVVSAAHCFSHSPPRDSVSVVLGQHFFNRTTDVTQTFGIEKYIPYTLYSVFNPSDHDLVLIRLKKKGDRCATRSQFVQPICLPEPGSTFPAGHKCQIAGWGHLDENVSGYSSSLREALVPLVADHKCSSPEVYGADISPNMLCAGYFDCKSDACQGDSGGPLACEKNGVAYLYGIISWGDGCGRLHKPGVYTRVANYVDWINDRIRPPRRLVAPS
Briefly: Biochemical assay for proteolysis of pro-HGF by HGFA. The following applies: immunoblot; inhibitors 0-12.5 μM; 1 nM HGFA. How it is done:
In order to determine efficiency of our recombinant HGFA we performed a concentration response of HGFA using a fixed concentration of pro-HGF and pro-MSP.
After 30 minutes incubation at room temperature (25° C.), 25 ng of pro-HGF (R&D Systems, NKG011306A) was added. […] Proteins were transferred to Millipore Immobilon-P membranes (Billerica, Mass.) and then immunoblotted at 4° C. with anti-HGF antibody (R&D Systems, AF-294-NA) and HRP conjugated donkey anti-goat IgG (Santa Cruz, SC-2020) diluted 1:500 and 1:5000 in 5% milk/TBST (5% Carnation nonfat dried milk/10 mM Tris, 150 mM NaCl, 0.05% TWEEN 20, pH 8.0), respectively. Membranes were washed in TBST, immersed in Millipore Luminata Crescendo Westem-HRP Substrate for 5 minutes, and then exposures made on a BioRad ChemiDoc MP Imaging System (Hercules, Calif.). For pro-MSP proteolysis assays, the procedures were similar, except that the HGFA concentration was 75 nM, pro-MSP (R&D Systems ZN081306A) concentration was 50 ng per reaction, and 1:500 dilution of anti-MSP antibody (R&D Systems, AF352) was used for MSP detection during immunoblotting.

In test [2] the target is T1, HGFA. Briefly: Dilution recovery experiments with HGFA. The class given is biochemical. The note with it: rapid 1:350 dilution; Boc-QLR-AMC 250 μM. The protocol:
After incubating for 20 minutes at room temperature, these reactions were diluted rapidly (1:350) in TNC buffer containing 250 μM Boc-QLR-AMC substrate (˜7 times Kin). Activity was monitored by recording the change in fluorescence (excitation at 380 nm and emission at 460 nn) over time in a Biotek Synergy 2 plate reader. GraphPad Prism was used to plot the change in fluorescence over time.

The target in test [3] is T1, HGFA. The experiment in a line: HGFA competition assay of inhibitor and substrate. The class given is biochemical. The note with it: 0, 0.25, 0.5, 1.0 μM inhibitor; Pefachrome. The protocol:
From the plots of the mean reaction velocity versus substrate concentration and the Michaelis-Menten enzyme kinetics equation within GraphPad Prism version 6.04 for Windows, the reaction Vmax and subsequent Km for each concentration of inhibitor was determined as shown in the FIG. 1.

The subject of test [4] is c-MET phosphorylation in MDA-MB-231 cells. Briefly: c-MET phosphorylation (Y1234/1235) in MDA-MB-231 cells treated with HGFA processed pro-HGF. In kind it is cell-based, human. The following applies: pro-HGF/HGFA reactions, read-out: EC50, inhibition of c-MET phosphorylation. The source says:
To show the inhibition provided by the tetrapeptide compounds would have effects on cell signaling through c-MET kinase, a phosphorylation assay using the invasive breast cancer cell line, MDA-MB-231 was developed. This cell line has high expression of c-MET and pro-HGFA but not pro-HGF.
MDA-MB-231 cells were maintained in RPMI medium (Sigma-Aldrich R8758, St. Louis, Mo.) containing 10% fetal bovine serum (Sigma F2442) and 1× Penicillin/Streptomycin (Pen/Strep) antibiotics (Thermo Fisher SV30010). […] After 18 hours, cells were switched to fresh starve media and then treated with HGFA Proteolysis reactions containing 1 nM HGFA, 50 ng pro-HGF and various amounts of inhibitors. […] Lysate aliquots were mixed with reducing SDS gel loading buffer and run on 10% PAGE.
Immunoblots were performed as described previously, except primary antibodies, anti-phospho cMet (Cell Signaling, CS3077) and anti-total cMet (Cell Signaling, CS3127) were used and diluted in 5% BSA/TBST. Secondary antibodies, HRP-anti rabbit antibody (CS7074) and HRP-anti mouse (CS7076) were used, respectively. All antibodies were used at a 1:1000 dilution. Images were obtained and quantitated using BioRad ChemiDoc MP Imaging System. cMet phosphorylation signals were normalized using the total cMet signals and % inhibition calculated using the ratio of inhibited versus uninhibited HGFA Proteolytic reactions. […]

Test [5] relates to RON phosphorylation in T47D cells. Briefly: RON phosphorylation sandwich ELISA in T47D cells. In kind it is cell-based. The following applies: HGFA-mediated pro-MSP stimulation. The protocol: Detection and quantification of pRON in T47D cells was performed using a sandwich ELISA assay. RON capture antibody (R&D Systems, AF691) was immobilized on high protein binding 96-well plates. Next, cell lysates are added to wells, followed by incubation with an anti-phosphotyrosine-HRP antibody and then addition of a TMB substrate. Optical density of wells was determined by reading plates at 450 nm in a plate reader.
For orientation: In an ELISA, binding on a coated surface is turned into a signal by an enzyme label.

Structures are written as SMILES.

With `CC(=O)N[C@@H](CCCCN)C(=O)N[C@@H](CCC(N)=O)C(=O)N[C@@H](CC(C)C)C(=O)N[C@@H](CCCNC(=N)N)C(=O)c1nccs1` [Compound 5, Ac-KQLR(SEQ ID NO: 1)-kt], at HGFA [1], the “inhibition of pro-HGF activation by HGFA” value is recorded as “dose-dependent inhibition”. For the same compound, the “reversibility of HGFA inhibition” value at HGFA [2] was “reversible inhibitor”. On HGFA [3], the “mode of inhibition versus substrate” value was “competitive”.
In the case of `CC(=O)N[C@@H](CCCCN)C(=O)N[C@@H](CCCNC(=N)N)C(=O)N[C@@H](CC(C)C)C(=O)N[C@@H](CCCNC(=N)N)C(=O)c1nccs1` [Compound 5g, Ac-KRLR(SEQ ID NO: 8)-kt], the “inhibition of pro-HGF activation by HGFA” value at HGFA [1] is reported as “dose-dependent inhibition”. The EC50 in test [4] was found to be 180 nM.
For the compound `CC(=O)N[C@@H](Cc1c[nH]c2ccccc12)C(=O)N[C@@H](CCCNC(=N)N)C(=O)N[C@@H](CC(C)C)C(=O)N[C@@H](CCCNC(=N)N)C(=O)c1nccs1` [Compound 5h, Ac-WRLR(SEQ ID NO: 9)-kt], the “inhibition of pro-HGF activation by HGFA” value on HGFA [1] is “dose-dependent inhibition”.
`N=C(N)c1ccc2cc(OC(=O)c3ccc(N=C(N)N)cc3)ccc2c1` [Nafamostat, reference compound]: the “inhibition of pro-HGF activation by HGFA” value at HGFA [1] is on record as “dose-dependent inhibition”. Also, the “RON phosphorylation (pRON)” value in test [5] is recorded as “reduces pRON to background levels”.

For orientation: EC50 means the concentration giving half of the maximal effect.

Values taken from US11130780B2, “Inhibitors of growth factor activation enzymes” (Washington University, priority 2015, dated 2021).
